The NIST ThermoML archive (doi:10.1021/acs.jced.8b00132)
Values joined by “and” are separate entries in the source; they are usually repeats but may differ in a detail not shown here. Equal entries are not always repeated. Numbers after ± are expanded uncertainties.

O=C(C(F)(F)C(F)(F)F)C(F)(C(F)(F)F)C(F)(F)F [dodecafluoro-2-methylpentan-3-one]
Conditions	thermal conductivity
329.25 K, 73 kPa, Gas, hot wire	0.0137 ± 0.00064 W/m/K
329.26 K, 72 kPa, Gas, hot wire	0.01377 ± 0.00065 W/m/K and 0.01374 ± 0.00065 W/m/K
329.31 K, 120 kPa, Gas, hot wire	0.01393 ± 0.00066 W/m/K
329.32 K, 120 kPa, Gas, hot wire	0.01375 ± 0.00065 W/m/K
329.34 K, 27 kPa, Gas, hot wire	0.01343 ± 0.00064 W/m/K
329.35 K, 27 kPa, Gas, hot wire	0.01345 ± 0.00064 W/m/K
329.36 K, 26 kPa, Gas, hot wire	0.01404 ± 0.00066 W/m/K
329.37 K, 26 kPa, Gas, hot wire	0.01398 ± 0.00066 W/m/K
329.38 K, 120 kPa, Gas, hot wire	0.01375 ± 0.00065 W/m/K
329.39 K, 105 kPa, Gas, hot wire	0.01386 ± 0.00065 W/m/K
329.39 K, 120 kPa, Gas, hot wire	0.01376 ± 0.00065 W/m/K
329.4 K, 105 kPa, Gas, hot wire	0.01386 ± 0.00065 W/m/K
329.42 K, 73 kPa, Gas, hot wire	0.01371 ± 0.00065 W/m/K and 0.01373 ± 0.00066 W/m/K
329.43 K, 72 kPa, Gas, hot wire	0.01372 ± 0.00065 W/m/K and 0.01375 ± 0.00065 W/m/K
329.43 K, 67798 kPa, Liquid, transient hot wire	0.07589 ± 0.0016 W/m/K
329.43 K, 67830 kPa, Liquid, transient hot wire	0.07595 ± 0.0016 W/m/K
329.47 K, 120 kPa, Gas, hot wire	0.01394 ± 0.00066 W/m/K
329.48 K, 120 kPa, Gas, hot wire	0.01386 ± 0.00065 W/m/K
329.48 K, 57461 kPa, Liquid, transient hot wire	0.0733 ± 0.0015 W/m/K
329.49 K, 57474 kPa, Liquid, transient hot wire	0.07325 ± 0.0015 W/m/K
329.5 K, 26 kPa, Gas, hot wire	0.01349 ± 0.00064 W/m/K
329.51 K, 27 kPa, Gas, hot wire	0.01348 ± 0.00064 W/m/K
329.52 K, 26 kPa, Gas, hot wire	0.01408 ± 0.00066 W/m/K
329.53 K, 26 kPa, Gas, hot wire	0.01404 ± 0.00066 W/m/K
329.56 K, 46607 kPa, Liquid, transient hot wire	0.07024 ± 0.0014 W/m/K
329.56 K, 46614 kPa, Liquid, transient hot wire	0.07022 ± 0.0014 W/m/K
329.57 K, 105 kPa, Gas, hot wire	0.01395 ± 0.00066 W/m/K and 0.01394 ± 0.00066 W/m/K
329.57 K, 120 kPa, Gas, hot wire	0.01381 ± 0.00065 W/m/K
329.58 K, 120 kPa, Gas, hot wire	0.01371 ± 0.00065 W/m/K
329.6 K, 72 kPa, Gas, hot wire	0.01381 ± 0.00065 W/m/K
329.6 K, 73 kPa, Gas, hot wire	0.01369 ± 0.00065 W/m/K and 0.01372 ± 0.00065 W/m/K
329.6 K, 67772 kPa, Liquid, transient hot wire	0.07593 ± 0.0016 W/m/K
329.6 K, 67790 kPa, Liquid, transient hot wire	0.07593 ± 0.0016 W/m/K
329.61 K, 72 kPa, Gas, hot wire	0.01376 ± 0.00065 W/m/K
329.63 K, 36730 kPa, Liquid, transient hot wire	0.06726 ± 0.0014 W/m/K
329.63 K, 36735 kPa, Liquid, transient hot wire	0.06721 ± 0.0014 W/m/K
329.65 K, 120 kPa, Gas, hot wire	0.01392 ± 0.00065 W/m/K
329.66 K, 119 kPa, Gas, hot wire	0.0139 ± 0.00065 W/m/K
329.66 K, 57448 kPa, Liquid, transient hot wire	0.07322 ± 0.0015 W/m/K
329.68 K, 27 kPa, Gas, hot wire	0.01357 ± 0.00064 W/m/K
329.68 K, 27945 kPa, Liquid, transient hot wire	0.06427 ± 0.0013 W/m/K
329.68 K, 27946 kPa, Liquid, transient hot wire	0.0643 ± 0.0013 W/m/K
329.68 K, 57441 kPa, Liquid, transient hot wire	0.07323 ± 0.0015 W/m/K
329.69 K, 27 kPa, Gas, hot wire	0.0135 ± 0.00064 W/m/K
329.7 K, 26 kPa, Gas, hot wire	0.01403 ± 0.00066 W/m/K and 0.01401 ± 0.00066 W/m/K
329.74 K, 20516 kPa, Liquid, transient hot wire	0.0619 ± 0.0013 W/m/K
329.74 K, 20518 kPa, Liquid, transient hot wire	0.0616 ± 0.0013 W/m/K
329.74 K, 46598 kPa, Liquid, transient hot wire	0.07033 ± 0.0014 W/m/K
329.74 K, 46602 kPa, Liquid, transient hot wire	0.07022 ± 0.0014 W/m/K
329.75 K, 104 kPa, Gas, hot wire	0.01402 ± 0.00067 W/m/K
329.76 K, 104 kPa, Gas, hot wire	0.01399 ± 0.00066 W/m/K
329.77 K, 120 kPa, Gas, hot wire	0.01378 ± 0.00065 W/m/K
329.79 K, 73 kPa, Gas, hot wire	0.01373 ± 0.00065 W/m/K
329.79 K, 120 kPa, Gas, hot wire	0.01373 ± 0.00065 W/m/K
329.8 K, 14125 kPa, Liquid, transient hot wire	0.05898 ± 0.0012 W/m/K
329.8 K, 14126 kPa, Liquid, transient hot wire	0.05901 ± 0.0012 W/m/K
329.8 K, 67755 kPa, Liquid, transient hot wire	0.07593 ± 0.0016 W/m/K
329.81 K, 67741 kPa, Liquid, transient hot wire	0.07589 ± 0.0016 W/m/K
329.82 K, 36726 kPa, Liquid, transient hot wire	0.06718 ± 0.0014 W/m/K
329.82 K, 36730 kPa, Liquid, transient hot wire	0.0673 ± 0.0014 W/m/K
329.83 K, 118 kPa, Gas, hot wire	0.01407 ± 0.00066 W/m/K
329.84 K, 118 kPa, Gas, hot wire	0.01403 ± 0.00066 W/m/K
329.85 K, 73 kPa, Gas, hot wire	0.01336 ± 0.00063 W/m/K
329.86 K, 72 kPa, Gas, hot wire	0.01334 ± 0.00063 W/m/K
329.86 K, 8619 kPa, Liquid, transient hot wire	0.05649 ± 0.0012 W/m/K
329.86 K, 57414 kPa, Liquid, transient hot wire	0.07321 ± 0.0015 W/m/K
329.86 K, 57423 kPa, Liquid, transient hot wire	0.07327 ± 0.0015 W/m/K
329.87 K, 27 kPa, Gas, hot wire	0.01359 ± 0.00064 W/m/K and 0.01357 ± 0.00064 W/m/K
329.87 K, 8621 kPa, Liquid, transient hot wire	0.05651 ± 0.0012 W/m/K
329.87 K, 27941 kPa, Liquid, transient hot wire	0.06427 ± 0.0013 W/m/K
329.88 K, 27942 kPa, Liquid, transient hot wire	0.06429 ± 0.0013 W/m/K
329.91 K, 4467 kPa, Liquid, transient hot wire	0.05452 ± 0.0011 W/m/K
329.91 K, 4470 kPa, Liquid, transient hot wire	0.05445 ± 0.0011 W/m/K
329.94 K, 26 kPa, Gas, hot wire	0.01354 ± 0.00064 W/m/K and 0.01352 ± 0.00064 W/m/K
329.94 K, 20524 kPa, Liquid, transient hot wire	0.06153 ± 0.0013 W/m/K
329.94 K, 46588 kPa, Liquid, transient hot wire	0.07021 ± 0.0014 W/m/K
329.94 K, 46601 kPa, Liquid, transient hot wire	0.07018 ± 0.0014 W/m/K
329.95 K, 20523 kPa, Liquid, transient hot wire	0.06156 ± 0.0013 W/m/K
329.97 K, 120 kPa, Gas, hot wire	0.01385 ± 0.00067 W/m/K
329.97 K, 177 kPa, Liquid, transient hot wire	0.05208 ± 0.0011 W/m/K
329.97 K, 178 kPa, Liquid, transient hot wire	0.05208 ± 0.0011 W/m/K
329.99 K, 120 kPa, Gas, hot wire	0.01382 ± 0.00067 W/m/K
329.99 K, 180 kPa, Liquid, transient hot wire	0.05206 ± 0.0011 W/m/K
329.99 K, 67709 kPa, Liquid, transient hot wire	0.0759 ± 0.0016 W/m/K
